Results on one molecule are retold here after paper PMC5120204, “Identification of an orally active small-molecule PTHR1 agonist for the treatment of hypoparathyroidism” (Nature Communications, 2016).

In this assay the target is T1, hPTHR1–hPTHR2 chimeric receptors (C1, C2, C3) and mutant hPTHR1s (M24, M25, M26, M414V, P415L, L416V) (Homo sapiens, UniProt Q03431, L416V/M414V/P415L).
T1 construct: expressed in transfected cells; host or cells: COS-7 (transient)
T1 sequence (Q03431 27-593 E93Y/D94P/K95Y/E96D/A97V/T99D/G100Y/S101A/M414V/P415L/L416V): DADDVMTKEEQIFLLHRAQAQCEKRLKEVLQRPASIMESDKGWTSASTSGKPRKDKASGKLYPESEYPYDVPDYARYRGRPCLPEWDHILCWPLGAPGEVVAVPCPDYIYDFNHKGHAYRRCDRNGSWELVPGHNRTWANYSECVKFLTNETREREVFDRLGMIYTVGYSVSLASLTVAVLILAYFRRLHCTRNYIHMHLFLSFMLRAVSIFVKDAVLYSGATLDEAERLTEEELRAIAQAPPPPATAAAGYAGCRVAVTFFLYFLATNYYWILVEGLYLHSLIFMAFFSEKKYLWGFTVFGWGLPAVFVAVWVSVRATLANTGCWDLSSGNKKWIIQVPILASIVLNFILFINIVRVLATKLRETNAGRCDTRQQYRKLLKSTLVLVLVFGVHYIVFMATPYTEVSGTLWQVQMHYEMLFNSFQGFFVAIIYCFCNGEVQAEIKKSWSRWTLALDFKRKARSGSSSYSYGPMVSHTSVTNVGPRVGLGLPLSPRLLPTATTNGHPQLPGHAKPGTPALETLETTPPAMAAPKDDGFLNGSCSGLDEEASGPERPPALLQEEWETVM
It is filed as cell-based. The following applies: mutant receptor M25 (M414, P415, L416 replaced). Here is the method:
COS-7 cells (ATCC) were seeded into a 96-well flat-bottomed plate (1.4 × 10^4 cells per 100 μl per well) and incubated overnight. The next day, the COS-7 cells were transfected by adding 10 μl of a mixture of hPTHR1, hPTHR2 or mutant hPTHR1 plasmid, rat PTHR1 or rat PTHR2 plasmid, or empty vector (0.1 μg per well), FuGENE HD Transfection Reagent (0.4 μl per well, Promega), and Opti-MEM I Reduced Serum Medium (10 μl per well, Life Technologies) to each well. […] The plate was placed in a 37 °C constant-temperature water bath for 20 min to allow the reaction to proceed. After incubation, the liquid in the wells was discarded, the wells were washed with the assay medium (100 μl per well), and the plate was frozen on dry ice. Next, 40 μl of 50 mmol l^−1 HCl was added to each well, and the plate was stored in a freezer set at ≤−20 °C. The cAMP concentrations were measured by using a cAMP EIA kit (GE Healthcare). EC50 values were determined from three independent experiments in duplicate by a non-linear regression Emax model (JMP ver.9.0.2, SAS Institute). The geometric mean of the EC50 values obtained in three experiments in duplicate was calculated using Microsoft Office Excel 2007. […]

Consider `Cc1cc(N2C(=O)NC(=O)C2(C)C)cc(C)c1CCS(=O)(=O)N1CCC2(CC1)N=C(c1ccc(OC(F)(F)F)cc1)NC2=O` [PCO371, 1-{3,5-dimethyl-4-[2-({4-oxo-2-[4-(trifluoromethoxy)phenyl]-1,3,8-triazaspiro[4.5]dec-1-en-8-yl}sulfonyl)ethyl]phenyl}-5,5-dimethylimidazolidine-2,4-dione], for which the cAMP increase result is listed as “lack of cAMP increase”.
